According to patent publication US20230050846A1, “TREATMENT OF HEPATIC AND CARDIOVASCULAR DISORDERS” (LIFESEARCH, priority 2019, published 2023):

Tests used:
human F1Fo-ATPase = biological target: T1, human F1Fo-ATPase (Homo sapiens, UniProt P06576); assay: F1-ATPase activity assay (NADH-coupled, purified enzyme); type: biochemical; conditions: 1 μM
T1 construct: Human F1Fo-ATPase was purified from HepG2 cells by immunocapture; endogenous in cells; host or cells: HepG2 cells; complex isolated by immunocapture with anti-ATP synthase antibody 12F4AD8AF8 (#ab109867, Abcam)
From the text: The mature human IF1 protein (SEQ ID NO: 5) was chemically synthesized by GenScript (Piscataway, N.J., USA) at >80% purity. The peptides derived from the mature human IF1 sequence (IF1-1-60, IF1-10-56, IF1-10-47) were produced by BachemAG (Bubendorf, Switzerland) with >90% purity.
Human F1Fo-ATPase was purified from HepG2 cells by immunocapture using mouse monoclonal anti-ATP synthase antibody (12F4AD8AF8, #ab109867, Abcam) according to manufacturer's instructions.
Measurement of F1-ATPase activity was assayed as previously described. Briefly, 10 μg of F1Fo-ATPase was prepared into 50 μL of activity assay buffer (10 mM HEPES, 150 mM NaCl, 5 mM KCl, 5 mM MgCl2, 0.5 mM phosphoenolpyruvate, 250 μM NADH, 100 μM ATP, 20 U lactate dehydrogenase, 120 U pyruvate kinase). The mixture was incubated at 37° C. for 30 min. Then the F1-ATPase activity was measured in a 96-well microplate by adding 5 μL of the mixture (1 μg of F1Fo-ATPase per point) per well to 200 μL of activity assay buffer at 37° C., and by adding 5 μL of buffer with or without peptide (1 μM each). The reduction in the absorbance of NADH was measured at 340 nm for 5 min with a Varioskan™ Flash Multimode Reader (Thermo Fisher Scientific). A slope was calculated for each well and the results expressed as a percentage of the control slope.

HepG2 cells = assay: HDL endocytosis assay in hepatocytes; type: cell-based, human; conditions: for effect on HDL endocytosis: 1 μM, HDL-Alexa568 50 μg/mL, 25 min, abolished by IF1 1 μM
Method: HepG2 cells were seeded on 96-well plates at 50,000 cells/well. HDL3 (d 1.12-1.21) were isolated from plasma of healthy human donors and referred to as HDL. HDL was fluorescently labeled with AlexaFluor®568 dye (A10238, Thermofisher Scientific) according the instructions of manufacturer. 1 h30 before the assay, the cells were serum starved for 1 h30 in order to stabilize nucleotide secretion. Cells were incubated with inhibitors (H49K, 1 μM) for 10 min before treatment with the different peptides (1 μM) or apoA-I (10 μg/ml) purified from human plasma. 5 min after peptide treatment, endocytosis was initiated by 50 μg/mL of AlexaFluor568®-labelled HDL. The same experiment was performed with a […] excess of unlabelled HDL (2.5 mg/mL) to determine the nonspecific fluorescence signal. After 25 min at 37° C., cells were then washed in serum-free DMEM and extracellular membrane-bound HDL was disassociated by incubating cells at 4° C. in serum-free DMEM for 90 min. Following washes, cells were lysate in NaOH 0.1M SDS 1% during 2 h, lysates were transferred in a black 96-wells plate and fluorescence was recorded at 568 nm (Varioscan flash). Fluorescence for each condition was substrate with the value obtained in unlabelled HDL condition, and results were expressed as the fold change as compared with the basal condition (untreated cells).

[1] = biological target: T2, ecto-F1-ATPase (HepG2 cells) (Homo sapiens, UniProt P06576); assay: ecto-F1-ATPase activity: extracellular ADP content, luciferin-luciferase assay; type: cell-based; conditions: HepG2, 5 min, apoA-I 10 μg/mL; effect blunted by IF1
T2 construct: host or cells: HepG2
Method: The human hepatocyte cell line HepG2 was obtained from the American Type Culture Collection (#HB-8065). HepG2 were cultured in Dulbecco's Modified Eagle's Medium (DMEM)—high glucose (D0822, Sigma-Aldrich) supplemented with 10% fetal bovine serum (10270098, Life technologies), 1% Penicillin-Streptomycin solution (P0781, Sigma-Aldrich). HepG2 cells were seeded on 24-well plates at 75,000 cells/well (Day 0). After 24 hours of growing, cells were serum starved for 24 h in order to synchronize cell cycles (Day 1) and then replaced additional 24 h in complete cell growth medium (Day 2). On day 3, cells were washed and equilibrated in fresh DMEM—high glucose without red phenol for 1 h (D1145, Sigma-Aldrich).
The cells were then treated 5 min with different concentration of peptide of formula (I) (0.1 to 5 μM), the peptide of formula (II) (1 μM), SCR (1 μM), SCR-K-16 (1 μM) or apoA-I (10 μg/mL) purified from human plasma.
Specific ecto-F1-ATPase activation was assessed in the presence of IF1 protein (1 μM), a natural inhibitor of F1-ATPase that interacts with the β-subunit to inhibit the ATP hydrolysis activity [5].
Supernatants were then collected and centrifuged (10,000 g, 5 min, 4° C.) and processed for ADP and ATP measurement. For ADP measurement, ADP was converted into ATP in 150 mM NaCl, 5 mM KCl, 2 mM MgCl2, pH 7.5 buffer containing 0.5 mM phosphoenolpyruvate (PEP) and pyruvate kinase (PK, 6 U per point for 15 min at 37° C.). For ATP measurement, 100 μl of sample was analyzed using the ATP bioluminescence assay kit CLS II (Roche Diagnostics). Samples were added to the ATP assay mixture and luminescence was measured in a microplate reader Infinite F500 (Tecan, Switzerland) for 1000 ms. The ATP standard curve was produced in the same medium as the samples and in the 10^−5 to 10^−10 M concentration range. The ADP concentration was then calculated as the ATP concentration following ADP conversion minus the basal ATP concentration. Data are expressed as nanomoles of ADP produced.

HUVEC cells = assay: Endothelial nitric oxide (NO) production, DAF-FM-DA probe; type: cell-based, human; conditions: apoA-I; abolished by IF1
Method: Nitric oxide (NO) was detected using a DAF-FM-DA probe (D2321, Sigma-Aldrich) which forms fluorescent benzotriazole when it reacts with NO. HUVEC cells (PromoCell #C-12203) were seeded in 96-well plates (10,000 cells per well) and cultured in endothelial cell basal medium 2 (PromoCell #C-22211) supplemented with GM2 supplement Mix (PromoCell #C-39211), until 80-90% confluence. The medium was then replaced with M-199 without serum for 4 h, and the cells were incubated for 45 min with DAF-FM-DA (5 μM) diluted in PBS. Cells were treated with increasing concentrations of the different peptides or apoA-I (10 μM) purified from human plasma or histamine (1 mM) as positive control. In another set of experiments, cells were incubated with inhibitors (IF1, 1 μM) for 10 min before treatment with peptides or apoA-I. The fluorescence was recorded for 30 min (λex=495 nm, λem=515 nm) with a Tecan Flash Multimode Reader (Thermo Fisher Scientific). Fluorescence for each condition was compared with the value obtained in untreated cells, and results were expressed as the fold change as compared with the basal condition (untreated cells).

stimulation of F1-ATPase activity (human F1Fo-ATPase) | extracellular ADP concentration [1] | Substance | effect on HDL endocytosis (HepG2 cells) | stimulation of HDL endocytosis compared to non-stimulated cells (HepG2 cells; apoA-I 10 μg/mL, abolished by IF1) | NO production by endothelial cells (HUVEC cells)
no effect |  | CH3CO-[SEQ ID NO: 2]-K-[palmitoyl]-NH2 (Ac-GEAKSYAEKGEARGERGTKGEFRIFKREATD-{K(palmitoyl)-NH2}) [SCR-K-C16, palmitoylated scramble peptide, negative control, reference compound] | no effect |  | 
no effect |  | CH3CO-[SEQ ID NO: 2]-NH2 (Ac-GEAKSYAEKGEARGERGTKGEFRIFKREATD-NH2) [SCR, reference compound] | no effect |  | 
 | increased | apoA-I: Apolipoprotein A-I purified from human plasma, known F1-ATPase activator, positive control [reference compound] |  | about 45% | stimulated
